Measurements taken from patent US20070203091A1, “Methods and therapeutic compositions for improving liver, blood flow and skeletal muscle functions in advanced diseases and aging” (priority 2006, published 2007).
“Also recorded” adds a separate entry of the source.

Legend:
[1] = Cachexia markers Part I: serum albumin, pre-albumin, C-Reactive Protein, Phase I study; format: in vivo, human; settings: for C-Reactive Protein, Change from Baseline, Mean / C-Reactive Protein, Change from Baseline, Median / C-Reactive Protein, Observed Values, Mean / C-Reactive Protein, Observed Values, Median / Pre-albumin, Change from Baseline, Mean / Pre-albumin, Change from Baseline, Median / Pre-albumin, Observed Values, Mean / Pre-albumin, Observed Values, Median / Serum Albumin, Change from Baseline, Mean / Serum Albumin, Change from Baseline, Median / Serum Albumin, Observed Values, Mean / Serum Albumin, Observed Values, Median: ITT
From the text: The data for albumin, LDH and Bilirubin support claims reciting improvement in liver function by claimed treatment of a human host in need thereof. Serum LDH levels are an established strong independent negative prognostic factor, inversely related to survival in a great variety of adverse clinical conditions. In advanced refractory cancers, high LDH and low Karnofsky's performance status are among the strongest established independent negative prognostic factors of survival and quality of life (29).

[2] = Safety and tolerability (NCI CTC version 2 toxicity grades) of ATP infusion, Phase I study; format: in vivo, human
Protocol: Two of the seven evaluable patients had advanced prostate cancer with bone metastases and one each had advanced mesothelioma, metastatic breast cancer, metastatic melanoma, metastatic colon cancer and renal cell carcinoma.
The 50 μg/kg/min dose could be reduced to 25 μg/kg/min if adverse effects occurred. […] Succeeding infusions in that patient were at the infusion dose tolerated at the end of the previous treatment. If adverse events occurred in patients being infused at 25 μg/kg/min, the infusions were terminated and the patient received no additional infusions.

[3] = Stability of ATP drug product and infusion solution; format: physicochemical
Protocol: An example of a clinical procedure in the treatment of individuals in need thereof is as follows. After determination of baseline, pre-treatment vital signs, hemodynamic variables and blood chemistry, an ATP dose escalation procedure is initiated. ATP is provided as a sterile solution in single use vials. […] Storage of the clinical solution is at controlled refrigerated temperature (2° C.-6° C.). […] The concentration of the final sterile solution for the infusion is 8 mg/ml.
See attached AAI International Analytical Testing Report Aug. 2, 2001.

[4] = Tumor burden endpoints (PSA), Phase I study; format: in vivo, human
[5] = cited from earlier work
[6] = Week 1 (Infusion 1), baseline, N=15

Nc1ncnc2c1ncn2[C@@H]1O[C@H](COP(=O)(O)OP(=O)(O)OP(=O)(O)O)[C@@H](O)[C@H]1O [ATP, adenosine 5′-triphosphate]
C-Reactive Protein, Change from Baseline, Mean [1, 6]: 0.0 mg/dL
C-Reactive Protein, Change from Baseline, Median [1, 6]: 0.0 mg/dL
C-Reactive Protein, Observed Values, Mean [1, 6]: 5.1 mg/dL
C-Reactive Protein, Observed Values, Median [1, 6]: 3.4 mg/dL
Pre-albumin, Change from Baseline, Mean [1, 6]: 0.0 mg/dL
Pre-albumin, Change from Baseline, Median [1, 6]: 0.0 mg/dL
Pre-albumin, Observed Values, Mean [1, 6]: 19.7 mg/dL
Pre-albumin, Observed Values, Median [1, 6]: 18.0 mg/dL
Serum Albumin, Change from Baseline, Mean [1, 6]: 0.0 g/dL
Serum Albumin, Change from Baseline, Median [1, 6]: 0.0 g/dL
Serum Albumin, Observed Values, Mean [1, 6]: 3.3 g/dL
Serum Albumin, Observed Values, Median [1, 6]: 3.4 g/dL
Pre-albumin, Change from Baseline, Mean ([1]; Week 2 (Infusion 2), N=13): -1.2 mg/dL
Pre-albumin, Change from Baseline, Median ([1]; Week 2 (Infusion 2), N=13): 0.0 mg/dL
Pre-albumin, Observed Values, Mean ([1]; Week 2 (Infusion 2), N=13): 19.4 mg/dL
Pre-albumin, Observed Values, Median ([1]; Week 2 (Infusion 2), N=13): 17.0 mg/dL
C-Reactive Protein, Change from Baseline, Mean ([1]; Week 2 (Infusion 2), N=14): 0.1 mg/dL
C-Reactive Protein, Change from Baseline, Median ([1]; Week 2 (Infusion 2), N=14): 0.5 mg/dL
C-Reactive Protein, Observed Values, Mean ([1]; Week 2 (Infusion 2), N=14): 5.0 mg/dL
C-Reactive Protein, Observed Values, Median ([1]; Week 2 (Infusion 2), N=14): 3.3 mg/dL
Serum Albumin, Change from Baseline, Mean ([1]; Week 2 (Infusion 2), N=14): -0.1 g/dL
Serum Albumin, Change from Baseline, Median ([1]; Week 2 (Infusion 2), N=14): 0.0 g/dL
Serum Albumin, Observed Values, Mean ([1]; Week 2 (Infusion 2), N=14): 3.2 g/dL
Serum Albumin, Observed Values, Median ([1]; Week 2 (Infusion 2), N=14): 3.2 g/dL
C-Reactive Protein, Change from Baseline, Mean ([1]; Week 4 (Infusion 4), N=9): 2.5 mg/dL
C-Reactive Protein, Change from Baseline, Median ([1]; Week 4 (Infusion 4), N=9): 1.6 mg/dL
C-Reactive Protein, Observed Values, Mean ([1]; Week 4 (Infusion 4), N=9): 6.6 mg/dL
C-Reactive Protein, Observed Values, Median ([1]; Week 4 (Infusion 4), N=9): 6.1 mg/dL
Pre-albumin, Change from Baseline, Mean ([1]; Week 4 (Infusion 4), N=10): -1.3 mg/dL
Pre-albumin, Change from Baseline, Median ([1]; Week 4 (Infusion 4), N=10): 0.0 mg/dL
Pre-albumin, Observed Values, Mean ([1]; Week 4 (Infusion 4), N=10): 16.5 mg/dL
Pre-albumin, Observed Values, Median ([1]; Week 4 (Infusion 4), N=10): 17.0 mg/dL
Serum Albumin, Change from Baseline, Mean ([1]; Week 4 (Infusion 4), N=11): -0.2 g/dL
Serum Albumin, Change from Baseline, Median ([1]; Week 4 (Infusion 4), N=11): -0.2 g/dL
Serum Albumin, Observed Values, Mean ([1]; Week 4 (Infusion 4), N=11): 3.2 g/dL
Serum Albumin, Observed Values, Median ([1]; Week 4 (Infusion 4), N=11): 3.0 g/dL
C-Reactive Protein, Change from Baseline, Mean ([1]; Week 6 (Infusion 6), N=8): 0.2 mg/dL
C-Reactive Protein, Change from Baseline, Median ([1]; Week 6 (Infusion 6), N=8): 0.0 mg/dL
C-Reactive Protein, Observed Values, Mean ([1]; Week 6 (Infusion 6), N=8): 4.5 mg/dL
C-Reactive Protein, Observed Values, Median ([1]; Week 6 (Infusion 6), N=8): 2.5 mg/dL
Pre-albumin, Change from Baseline, Mean ([1]; Week 6 (Infusion 6), N=8): -7.5 mg/dL
Pre-albumin, Change from Baseline, Median ([1]; Week 6 (Infusion 6), N=8): -4.5 mg/dL
Pre-albumin, Observed Values, Mean ([1]; Week 6 (Infusion 6), N=8): 16.6 mg/dL
Pre-albumin, Observed Values, Median ([1]; Week 6 (Infusion 6), N=8): 16.0 mg/dL
Serum Albumin, Change from Baseline, Mean ([1]; Week 6 (Infusion 6), N=9): -0.1 g/dL
Serum Albumin, Change from Baseline, Median ([1]; Week 6 (Infusion 6), N=9): -0.2 g/dL
Serum Albumin, Observed Values, Mean ([1]; Week 6 (Infusion 6), N=9): 3.2 g/dL
Serum Albumin, Observed Values, Median ([1]; Week 6 (Infusion 6), N=9): 3.1 g/dL
C-Reactive Protein, Change from Baseline, Mean ([1]; Week 8 (Infusion 8), N=6): 3.7 mg/dL
C-Reactive Protein, Change from Baseline, Median ([1]; Week 8 (Infusion 8), N=6): 0.0 mg/dL
C-Reactive Protein, Observed Values, Mean ([1]; Week 8 (Infusion 8), N=6): 9.0 mg/dL
C-Reactive Protein, Observed Values, Median ([1]; Week 8 (Infusion 8), N=6): 4.7 mg/dL
Pre-albumin, Change from Baseline, Mean ([1]; Week 8 (Infusion 8), N=7): -6.3 mg/dL
Pre-albumin, Change from Baseline, Median ([1]; Week 8 (Infusion 8), N=7): -4.0 mg/dL
Pre-albumin, Observed Values, Mean ([1]; Week 8 (Infusion 8), N=7): 19.6 mg/dL
Pre-albumin, Observed Values, Median ([1]; Week 8 (Infusion 8), N=7): 19.0 mg/dL
Serum Albumin, Change from Baseline, Mean ([1]; Week 8 (Infusion 8), N=7): -0.1 g/dL
Serum Albumin, Change from Baseline, Median ([1]; Week 8 (Infusion 8), N=7): -0.1 g/dL
Serum Albumin, Observed Values, Mean ([1]; Week 8 (Infusion 8), N=7): 3.3 g/dL
Serum Albumin, Observed Values, Median ([1]; Week 8 (Infusion 8), N=7): 3.4 g/dL
C-Reactive Protein, Change from Baseline, Mean ([1]; Week 10 (Follow-up), N=4): 6.0 mg/dL
C-Reactive Protein, Change from Baseline, Median ([1]; Week 10 (Follow-up), N=4): -0.7 mg/dL
C-Reactive Protein, Observed Values, Mean ([1]; Week 10 (Follow-up), N=4): 11.2 mg/dL
C-Reactive Protein, Observed Values, Median ([1]; Week 10 (Follow-up), N=4): 7.0 mg/dL
Pre-albumin, Change from Baseline, Mean ([1]; Week 10 (Follow-up), N=6): -8.3 mg/dL
Pre-albumin, Change from Baseline, Median ([1]; Week 10 (Follow-up), N=6): -1.0 mg/dL
Pre-albumin, Observed Values, Mean ([1]; Week 10 (Follow-up), N=6): 20.2 mg/dL
Pre-albumin, Observed Values, Median ([1]; Week 10 (Follow-up), N=6): 18.5 mg/dL
Serum Albumin, Change from Baseline, Mean ([1]; Week 10 (Follow-up), N=6): 0.0 g/dL
Serum Albumin, Change from Baseline, Median ([1]; Week 10 (Follow-up), N=6): -0.1 g/dL
Serum Albumin, Observed Values, Mean ([1]; Week 10 (Follow-up), N=6): 3.6 g/dL
Serum Albumin, Observed Values, Median ([1]; Week 10 (Follow-up), N=6): 3.7 g/dL
C-Reactive Protein, Change from Baseline, Mean ([1]; Week 13 (Follow-up), N=5): 5.3 mg/dL
C-Reactive Protein, Change from Baseline, Median ([1]; Week 13 (Follow-up), N=5): 0.0 mg/dL
C-Reactive Protein, Observed Values, Mean ([1]; Week 13 (Follow-up), N=5): 9.1 mg/dL
C-Reactive Protein, Observed Values, Median ([1]; Week 13 (Follow-up), N=5): 0.4 mg/dL
Pre-albumin, Change from Baseline, Mean ([1]; Week 13 (Follow-up), N=5): -8.4 mg/dL
Pre-albumin, Change from Baseline, Median ([1]; Week 13 (Follow-up), N=5): 0.0 mg/dL
Pre-albumin, Observed Values, Mean ([1]; Week 13 (Follow-up), N=5): 22.4 mg/dL
Pre-albumin, Observed Values, Median ([1]; Week 13 (Follow-up), N=5): 24.0 mg/dL
Serum Albumin, Change from Baseline, Mean ([1]; Week 13 (Follow-up), N=6): -0.0 g/dL
Serum Albumin, Change from Baseline, Median ([1]; Week 13 (Follow-up), N=6): -0.1 g/dL
Serum Albumin, Observed Values, Mean ([1]; Week 13 (Follow-up), N=6): 3.5 g/dL
Serum Albumin, Observed Values, Median ([1]; Week 13 (Follow-up), N=6): 3.5 g/dL
levels of C-Reactive Protein ([1]; after 13 weeks): continued to increase
levels of pre-albumin ([1]; after 13 weeks): decreased
serum albumin levels ([1]; after 13 weeks): stabilize and prevent a drop
Lab. Toxicity ([2]; Patient 501): Nil noted
Clin. Toxicity and CTC-Grade ([2]; Patient 501, Ca Colon, 50 & 75 μg/kg/min, Weeks 1&2): I Flushing
Lab. Toxicity ([2]; Patient 502): Nil noted
Clin. Toxicity and CTC-Grade ([2]; Patient 502, Mesothelioma, 50, 75, & 100 μg/kg/min, Weeks 1-8): I Chest D/Dysp; also recorded: I Flushing; also recorded: I Anxiety
Lab. Toxicity: Hb decreased, Grade II ([2]; Patient 503): Hb 8.0 g/dl
Clin. Toxicity and CTC-Grade ([2]; Patient 503, Prostate, 50, 75, & 100 μg/kg/min, Weeks 1-8): II Confusion -
Lab. Toxicity ([2]; Patient 504): Nil noted
Lab. Toxicity ([2]; Patient 505): Nil noted
Clin. Toxicity and CTC-Grade ([2]; Patient 505, Melanoma, 50, 75 & 100 μg/kg/min, Weeks 1-8): I Flushing; also recorded: AVBlock/CHB
Lab. Toxicity: bilirubin and LFT's - disease progression ([2]; Patient 506): Increasing
Clin. Toxicity and CTC-Grade ([2]; Patient 506, Ca Colon, 50 & 75 & 100 μg/kg/min, Weeks 1-6): I Headache
Lab. Toxicity ([2]; Patient 507): Nil noted
Clin. Toxicity and CTC-Grade ([2]; Patient 507, Ca Prostate, 50, 75 & 100 μg/kg/min, Weeks 1-8): I Nasal stuffiness; also recorded: II increasing pain -
Lab. Toxicity ([2]; Patient 508, 50 μg/kg/min, Week 1): Nil noted
clinical toxicities ([2]; Patient 508, first infusion at 50 μg/kg/min): No clinical toxicities were noted
Clin. Toxicity and CTC-Grade ([2]; Patient 509, Renal cell carcinoma, 50, 75 & 100 μg/kg/min, Weeks 1-8): I anxiety; also recorded: I nausea; also recorded: I vomiting
Lab. Toxicity: AST/Alk Phos increase ([2]; Patient 509, at FU): At FU grade I
patients tolerating the maximum allowable dose of 100 μg/kg/min ([2]; continuous 8 hour intravenous infusion, first nine patients): seven of nine
tolerability in terminal patients ([2]; seen in patient 506): well tolerated
3 month stability data ([3]; 3 months under routine storage conditions): remains stable at 3 months under
15 months stability testing ([3]; refrigerated ATP (5° C.)): 99.7 % of label
stability of the final ATP solutions ([3]; room temperature, infusion solution 8 mg/ml): at least 96 hours
Tumor burden Endpoints: PSA Post ([4]; Patient 503, PSA Pre 4000): Post 3903
PSA compared to baseline ([4]; Patient 503, at the end of follow up): unchanged
Tumor burden Endpoints: PSA ([4]; Patient 507, increased after stopping Rx): PSA unchanged
increase in vascular diameter ([5]; blood plasma ATP about 1 microM): 8%
increase in blood flow ([5]; blood plasma ATP about 1 microM, corresponding to the increase in vascular diameter): ≥ 17%
site of vasodilation ([5]; intraluminal, physiological concentrations): not only local vasodilation, but also vasodilation at sites upstream from the site of its application
